The values that follow come from ChEMBL document CHEMBL5131493, “Synthesis and evaluation of RNase L-binding 2-aminothiophenes as anticancer agents” (Bioorg Med Chem, 2022).

The subject of experiment [1] is JAR. The experiment can be described thus: Antiproliferative activity against human JAR cells assessed as cell growth inhibition at 10 uM incubated for 72 hrs by MTT assay relative to control. Format: functional. For orientation: Tetrazolium assays rely on reduction of a dye to a coloured formazan, in cell work by metabolically active cells.
Experiment [2] concerns A549. In words: Antiproliferative activity against human A549 cells assessed as cell growth inhibition at 10 uM incubated for 72 hrs by MTT assay relative to control. Format: functional.
Experiment [3] deals with K562. The experiment can be described thus: Antiproliferative activity against human K562 cells assessed as cell growth inhibition at 10 uM incubated for 72 hrs by MTT assay relative to control. It is filed as functional.
Experiment [4] has as its system MCF7. The experiment can be described thus: Antiproliferative activity against human MCF7 cells assessed as cell growth inhibition at 10 uM incubated for 72 hrs by MTT assay relative to control. It is filed as functional.
The species entered for experiment [5] is Homo sapiens. The experiment can be described thus: Binding affinity to RNase L (unknown origin) expressed in Escherichia coli BL21 (DE3) assessed as thermal stability by measuring melting temperature at 60 uM incubated for 50 mins by NanoDSF analysis.
The subject of experiment [6] is A549. The experiment can be described thus: Antiproliferative activity against human A549 cells assessed as cell growth inhibition incubated for 72 hrs by MTT assay. As to conditions: A549, 72 h. It is filed as functional, cell-based.
Experiment [7] has as its system JAR. The experiment can be described thus: Antiproliferative activity against human JAR cells assessed as cell growth inhibition incubated for 72 hrs by MTT assay. Format: functional, cell-based.
For experiment [8], the system named is MCF7. The experiment can be described thus: Antiproliferative activity against human MCF7 cells assessed as cell growth inhibition incubated for 72 hrs by MTT assay. Format: functional, cell-based. Particulars: MCF7, 72 h.
Experiment [9] concerns K562. In words: Antiproliferative activity against human K562 cells assessed as cell growth inhibition incubated for 72 hrs by MTT assay. Format: functional, cell-based. As to conditions: K562, 72 h.
Experiment [10] relates to JAR. The experiment can be described thus: Inhibition of cell migration in human JAR cells at 5 uM measured after 72 hrs by scratch wound healing assay relative to control. It is filed as functional.
Experiment [11] concerns JAR. In words: Inhibition of colony formation in human JAR cells assessed as cell reproductive death at upto 5 uM measured after 3 days by Giemsa staining based microscopic analysis. Format: functional. Particulars: time 3.0 day.
Experiment [12] has as its system JAR. In words: Induction of apoptosis in human JAR cells assessed as fold increase in cleaved PARP level at 10 uM incubated for 24 hrs by Western blot analysis. Format: functional. Background: A western blot detects proteins with antibodies after separation by electrophoresis.
The subject of experiment [13] is JAR. The experiment can be described thus: Inhibition of colony formation in human JAR cells measured after 3 days by Giemsa staining based microscopic analysis. It is filed as functional, cell-based. As to conditions: time 3.0 day, DDE = dose-dependent effect.

The inhibition is how much of the control response was suppressed. Usually ΔTm stands for the change in melting temperature against a reference sample. By IC50 is commonly meant the concentration that gives 50% inhibition.

Structures are written as SMILES. Activity calls are given as the source filed them. No cut-off for these calls is given here. A value given as a limit tells only on which side of the number the result lay.

In the case of `CCOC(=O)C1=C(Nc2ccccc2)S/C(=C\c2ccccc2C(F)(F)F)C1=O`, the inhibition at 10 µM in [1] was 29%; in experiment [2], under 10%; in [3], 19.7%; in experiment [4], under 10%. Also, the ΔTm in [5] was determined as 0.8 °C.
`CCOC(=O)C1=C(Nc2ccccc2)S/C(=C\c2cc[nH]c2)C1=O`: the inhibition at 10 µM in experiment [1] is 19.5%; in experiment [2], under 10%; in [3], 18.9%; in experiment [4], under 10%.
For the compound `CCOC(=O)C1=C(Nc2ccccc2)S/C(=C\c2ccc(Br)c(O)c2)C1=O`, the inhibition at 10 µM in [1] stood at 39.8%; in [2] it was 13.6%; in [3] it was 22%; in experiment [4] it was 16.4%.
In the case of `CCOC(=O)C1=C(Nc2ccccc2)S/C(=C\c2ccc(OC)cc2)C1=O`, the inhibition at 10 µM in experiment [1] was found to be 32.9%; in experiment [2] it was 17.5%; in experiment [3] it was 9.6%; in [4] it was 14.7%.
With `CCOC(=O)C1=C(Nc2ccccc2)SC(=C2CCC2)C1=O`, the IC50 in experiment [6] came out at 17 µM; in experiment [7] it was 8.4 µM; in [8] it was 18.1 µM; in experiment [9], 4.5 µM. Moreover, the inhibition at 10 µM was found to be 70.2% in [1] and 40.4% in [4]. Further, the ΔTm in [5] was found to be 0.7 °C.
Regarding `CCOC(=O)C1=C(Nc2ccccc2)SC(=C2CCCCC2)C1=O`, the inhibition at 10 µM came out at 15.5% in experiment [1] and 18.7% in experiment [3]. Besides, the ΔTm in experiment [5] amounted to 0.7 °C.
For the compound `CCOC(=O)C1=C(Nc2ccccc2)S/C(=C2\CCN(C(=O)OC(C)(C)C)C2)C1=O`, the IC50 in experiment [6] amounted to 47 µM; in [7], 37 µM; in experiment [9], 11.6 µM. For the same compound, the inhibition at 10 µM in experiment [4] came out at 33.8%. Moreover, in [5], the ΔTm came to 0.5 °C.
With `CCOC(=O)C1=C(Nc2ccccc2)S/C(=C\c2cc3ccncc3[nH]2)C1=O`, the inhibition at 10 µM in experiment [1] is 26.3%; in experiment [2] it was 17.1%; in experiment [3] it was 22.8%; in experiment [4], 18.2%.
Consider `CCOC(=O)C1=C(Nc2ccccc2)S/C(=C\c2ccccc2O)C1=O`, for which the IC50 was determined as 16.9 µM in experiment [6], 8 µM in experiment [7], 15.1 µM in [8] and 8.8 µM in experiment [9]. Moreover, the inhibition at 10 µM in [1] amounted to 89.4%.
As for `CCOC(=O)C1=C(Nc2ccccc2)S/C(=C\C2CCCCC2)C1=O`, the concentration for half-maximal inhibition (IC50) in experiment [6] was found to be 18 µM; in experiment [7], 3.7 µM; in experiment [8], 6.4 µM; in [9], 5.9 µM. Also, the inhibition at 5 µM in experiment [10] came to 42%. Besides, the inhibition at 10 µM in experiment [1] was found to be 95.2%; in experiment [4], 45.3%. Further, the inhibition result in [11] is “Active”. In addition, the “fold change (FC)” value in experiment [12] is on record as over 1.5. Further, in [13], the inhibition result is “Dde”. Further, the ΔTm in experiment [5] was 1.4 °C.
For `CCOC(=O)C1=C(Nc2ccccc2)S/C(=C\c2ccc(O)c(O)c2)C1=O`, the IC50 in [6] is over 100 µM; in experiment [7], 6.1 µM; in experiment [8], 25.2 µM; in [9], 5.2 µM. Further, the inhibition at 10 µM in [1] was determined as 48.7%; in [2], 30.7%; in [4] it was 38.1%.
Turning to `CCOC(=O)C1=C(Nc2ccccc2)SC(=C2CN(C(=O)OC(C)(C)C)C2)C1=O`, the IC50 in experiment [6] was 35.8 µM; in [7], 23.2 µM; in [9], 10.7 µM. In addition, the inhibition at 10 µM in [4] stood at 29.6%. Also, the ΔTm in experiment [5] was found to be 0.5 °C.
`CCOC(=O)C1=C(Nc2ccccc2)S/C(=C\c2ccc(OC)c(O)c2)C1=O`: in [2], the inhibition at 10 µM was determined as 11%. The shift in melting temperature (ΔTm) in [5] was 0.6 °C.
With `CCOC(=O)C1=C(Nc2cccc([N+](=O)[O-])c2)S/C(=C\c2ccc[nH]2)C1=O`, the IC50 in experiment [6] came out at 23.9 µM; in [7] it was 10.1 µM; in experiment [8] it was 20.7 µM; in [9] it was 7.2 µM. Further, the results for the inhibition at 10 µM in experiment [1] and in experiment [4] were 57.4% and 27.4%, respectively.
In the case of `CCOC(=O)C1=C(Nc2ccccc2)S/C(=C\c2ccc(C(F)(F)F)cc2)C1=O`, the concentration for half-maximal inhibition (IC50) in [6] is 9.8 µM; in [7] it was 5.9 µM; in experiment [8] it was 13.7 µM; in [9], 7 µM. For the same compound, the inhibition at 10 µM in experiment [1] was determined as 68.7%; in experiment [4], 41.3%. In experiment [5], the ΔTm came out at 0.8 °C.
In the case of `CCOC(=O)C1=C(Nc2ccccc2)S/C(=C\c2cc(OC)ccc2OC)C1=O`, the inhibition at 10 µM in experiment [1] is 38.1%; in experiment [2], under 10%; in [3] it was 30.7%; in [4], under 10%. Moreover, the ΔTm in [5] turned out to be 0.5 °C.
As to `CCOC(=O)C1=C(Nc2ccccc2)S/C(=C\c2ccc(O)c(OC)c2)C1=O`, the concentration for half-maximal inhibition (IC50) in [6] was over 100 µM; in experiment [7] it was 8.9 µM; in experiment [8] it was over 100 µM; in [9] it was 10.4 µM. The inhibition at 10 µM in [1] came out at 49.7%; in [2] it was 24.2%; in experiment [4], 23.2%. Also, the ΔTm in experiment [5] is -1.3 °C.
`CCOC(=O)C1=C(Nc2ccccc2)S/C(=C\c2cc(OC)c(O)c(OC)c2)C1=O`: the IC50 in [6] was 19.2 µM; in [7] it was 17.4 µM; in experiment [9], 31.7 µM. The inhibition at 10 µM was determined as 57.5% in experiment [1], 19.2% in [2] and 12.9% in experiment [4].
Consider `CCOC(=O)C1=C(Nc2ccccc2)S/C(=C\c2ccc[nH]2)C1=O`, for which the IC50 in [6] is over 100 µM; in experiment [7], 9.5 µM; in experiment [8], 48 µM; in experiment [9], 71 µM. Moreover, the inhibition at 10 µM in experiment [1] came to 49.2%; in [2] it was 23.5%; in [3] it was 16.2%; in experiment [4], 18.3%.
For `CCOC(=O)C1=C(Nc2ccccc2)S/C(=C\c2cccc(O)c2)C1=O`, the results for the inhibition at 10 µM in [1], in [2] and in [4] were 51.9%, 30.6% and 24.1%, respectively. Besides, the IC50 turned out to be 17 µM in experiment [7] and 38.7 µM in [9]. Also, in [5], the ΔTm came out at 0.5 °C.
For `CCOC(=O)C1=C(Nc2ccccc2)S/C(=C\c2ccc(C(=O)OCC)[nH]2)C1=O`, the IC50 in experiment [6] is over 100 µM; in [7], 10.6 µM; in experiment [8] it was 30.5 µM; in experiment [9], 46.8 µM. For the same compound, the inhibition at 10 µM is 60.1% in experiment [1], under 10% in experiment [2] and 18.6% in [3].
`CCOC(=O)C1=C(Nc2ccccc2Br)S/C(=C\c2ccc[nH]2)C1=O`: the half-inhibitory concentration (IC50) stood at 43.2 µM in [6], 8.9 µM in [7], 27.1 µM in experiment [8] and 36.3 µM in experiment [9]. Moreover, the inhibition at 10 µM stood at 62.7% in experiment [1], 20.5% in experiment [3] and 29.4% in experiment [4].
In the case of `CCOC(=O)C1=C(Nc2ccccc2)S/C(=C\c2ccccc2)C1=O`, the inhibition at 10 µM was 20.3% in experiment [1], 29.6% in experiment [2], 42.9% in experiment [3] and 23.6% in [4]. Also, the ΔTm in [5] turned out to be 0.8 °C.
`CCOC(=O)C1=C(Nc2ccccc2)S/C(=C\c2cccnc2)C1=O`: the inhibition at 10 µM in [1] was 32.1%; in [2], under 10%; in experiment [3], under 10%; in experiment [4] it was under 10%. Also, the ΔTm in experiment [5] came out at 1 °C.
`CCOC(=O)C1=C(Nc2ccc(Br)cc2)S/C(=C\c2ccc[nH]2)C1=O`: the inhibition at 10 µM was 41.5% in [1], under 10% in experiment [2], 17% in experiment [3] and under 10% in experiment [4]. Further, in [7], the IC50 is 27 µM.
`CCOC(=O)C1=C(Nc2ccccc2)S/C(=C\c2ccc(C(=O)O)cc2)C1=O`: the inhibition at 10 µM in experiment [1] was 16.8%; in [2], 11.6%; in [3], 27.5%; in [4], under 10%.
